Data: patent publication US10800792B2, “Inhibitors of Bruton's tyrosine kinase and method of their use” (JANSSEN PHARMACEUTICA NV, priority 2015, dated 2020)

Molecular target: unphosphorylated-BTK kinase domain (UP-BTK), GST-tagged human BTK (389-659aa) (Homo sapiens (Human), UniProt Q06187)
Assay: BTK kinase Lanthascreen binding assay
Conditions: Lanthascreen tracer competition, 60 minutes incubation, pIC50 = negative log of the IC50 in molar
Summary of the method: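 Compound binding to the unphosphorylated kinase domain was monitored by displacement of a fluorescently labelled tracer in a Lanthascreen format. Potency is given as pIC50, the negative log of the molar IC50.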

Sequence of unphosphorylated-BTK kinase domain (UP-BTK), GST-tagged human BTK (389-659aa) (Q06187 389-659): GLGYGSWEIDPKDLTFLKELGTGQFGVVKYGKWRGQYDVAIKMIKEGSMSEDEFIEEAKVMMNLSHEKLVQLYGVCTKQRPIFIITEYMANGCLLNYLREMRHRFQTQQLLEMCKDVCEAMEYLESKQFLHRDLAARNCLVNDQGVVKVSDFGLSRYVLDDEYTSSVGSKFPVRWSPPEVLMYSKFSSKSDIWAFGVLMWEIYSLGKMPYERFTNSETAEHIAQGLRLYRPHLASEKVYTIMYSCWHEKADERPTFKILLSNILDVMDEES

C=CC(=O)N1CCC[C@@H](NC(=O)c2sc3nccc4c3c2NC(=O)N4c2ccc(Oc3cccc(C)n3)cc2C)C1 [Example 772, (R)—N-(1-Acryloylpiperidin-3-yl)-5-(2-methyl-4-((6-methylpyridin-2-yl)oxy)phenyl)-4-oxo-4,5-dihydro-3H-1-thia-3,5,8-triazaacenaphthylene-2-carboxamide]
BTK_I_binding pIC50: 7.7

C=CC(=O)N1CCC[C@@H](NC(=O)c2sc3nccc4c3c2NC(=O)N4c2ccc(Oc3cccnc3C)cc2C)C1 [Example 773, (R)—N-(1-Acryloylpiperidin-3-yl)-5-(2-methyl-4-((2-methylpyridin-3-yl)oxy)phenyl)-4-oxo-4,5-dihydro-3H-1-thia-3,5,8-triazaacenaphthylene-2-carboxamide]
BTK_I_binding pIC50: 7.4

C=CC(=O)N1CCC[C@@H](NC(=O)c2sc3nccc4c3c2NC(=O)N4c2ccc(Oc3cccnc3)cc2)C1 [Example 774, (R)—N-(1-Acryloylpiperidin-3-yl)-4-oxo-5-(4-(pyridin-3-yloxy)phenyl)-4,5-dihydro-3H-1-thia-3,5,8-triazaacenaphthylene-2-carboxamide]
BTK_I_binding pIC50: 7.9

C=CC(=O)N1CCC[C@@H](NC(=O)c2sc3nccc4c3c2NC(=O)N4c2ccc(Oc3cccc(C)n3)cc2)C1 [Example 775, (R)—N-(1-Acryloylpiperidin-3-yl)-5-(4-((6-methylpyridin-2-yl)oxy)phenyl)-4-oxo-4,5-dihydro-3H-1-thia-3,5,8-triazaacenaphthylene-2-carboxamide]
BTK_I_binding pIC50: 7.5

C=CC(=O)N1CCC[C@@H](NC(=O)c2sc3nccc4c3c2NC(=O)N4c2ccc(Oc3ccccc3F)cn2)C1 [Example 777, (R)—N-(1-Acryloylpiperidin-3-yl)-5-(5-(2-fluorophenoxy)pyridin-2-yl)-4-oxo-4,5-dihydro-3H-1-thia-3,5,8-triazaacenaphthylene-2-carboxamide]
BTK_I_binding pIC50: 8.3

C=CC(=O)N1CCC[C@@H](NC(=O)c2sc3nccc4c3c2NC(=O)N4c2ccc(Oc3ccccn3)cc2C)C1 [Example 778, (R)—N-(1-Acryloylpiperidin-3-yl)-5-(2-methyl-4-(pyridin-2-yloxy)phenyl)-4-oxo-4,5-dihydro-3H-1-thia-3,5,8-triazaacenaphthylene-2-carboxamide]
BTK_I_binding pIC50: 8.0

O=C(CCCC(=O)NCCCOCCOCCOCCCNC(=O)CCCC[C@H]1SC[C@H]2NC(=O)N[C@H]21)NC/C=C/C(=O)N1CCCC(NC(=O)c2sc3nccc4c3c2NC(=O)N4c2ccc(Oc3ccccc3)cn2)C1 (stereo partly drawn) [Example 780, N^1-(15-Oxo-19-((3aR,4R,6aS)-2-oxohexahydro-1H-thieno[3,4-d]imidazol-4-yl)-4,7,10-trioxa-14-azanonadecyl)-N^5-((E)-4-oxo-4-(3-(4-oxo-5-(5-phenoxypyridin-2-yl)-4,5-dihydro-3H-1-thia-3,5,8-triazaacenaphthylene-2-carboxamido)piperidin-1-yl)but-2-en-1-yl)glutaramide]
BTK_I_binding pIC50: 6.3

C=CC(=O)N1CC[C@@H](NC(=O)c2sc3nccc4c3c2NC(=O)N4c2ccc(Oc3ccccn3)cc2C)C1 [Example 781, (R)—N-(1-Acryloylpyrrolidin-3-yl)-5-(2-methyl-4-(pyridin-2-yloxy)phenyl)-4-oxo-4,5-dihydro-3H-1-thia-3,5,8-triazaacenaphthylene-2-carboxamide]
BTK_I_binding pIC50: 7.4

C=CC(=O)N1CCC[C@@H](NC(=O)c2sc3nccc4c3c2NC(=O)N4c2ccc(Oc3ccc(C)nc3)cc2C)C1 [Example 783, (R)—N-(1-Acryloylpiperidin-3-yl)-5-(2-methyl-4-((6-methylpyridin-3-yl)oxy)phenyl)-4-oxo-4,5-dihydro-3H-1-thia-3,5,8-triazaacenaphthylene-2-carboxamide]
BTK_I_binding pIC50: 7.1

C=CC(=O)N1CCC[C@@H](NC(=O)c2sc3nccc4c3c2NC(=O)N4c2ccc(Oc3cccnn3)cc2C)C1 [Example 784, (R)—N-(1-Acryloylpiperidin-3-yl)-5-(2-methyl-4-(pyridazin-3-yloxy)phenyl)-4-oxo-4,5-dihydro-3H-1-thia-3,5,8-triazaacenaphthylene-2-carboxamide]
BTK_I_binding pIC50: 7.4

C=CC(=O)N1CCC[C@@H](NC(=O)c2sc3nccc4c3c2NC(=O)N4c2ccc(O[C@H]3CCOC3)cc2C)C1 [Example 785, N—((R)-1-Acryloylpiperidin-3-yl)-5-(2-methyl-4-(((S)-tetrahydrofuran-3-yl)oxy)phenyl)-4-oxo-4,5-dihydro-3H-1-thia-3,5,8-triazaacenaphthylene-2-carboxamide]
BTK_I_binding pIC50: 7.1

C=CC(=O)N1CCC[C@@H](NC(=O)c2sc3nccc4c3c2NC(=O)N4c2ccc(Oc3ccc(C)cn3)cc2)C1 [Example 786, (R)—N-(1-Acryloylpiperidin-3-yl)-5-(4-((5-methylpyridin-2-yl)oxy)phenyl)-4-oxo-4,5-dihydro-3H-1-thia-3,5,8-triazaacenaphthylene-2-carboxamide]
BTK_I_binding pIC50: 6.9

C=CC(=O)N1CCC[C@@H](NC(=O)c2sc3nccc4c3c2NC(=O)N4c2ccc(O[C@@H]3CCOC3)cc2C)C1 [Example 787, N—((R)-1-Acryloylpiperidin-3-yl)-5-(2-methyl-4-(((R)-tetrahydrofuran-3-yl)oxy)phenyl)-4-oxo-4,5-dihydro-3H-1-thia-3,5,8-triazaacenaphthylene-2-carboxamide]
BTK_I_binding pIC50: 6.6

C=CC(=O)N1CCCC(C(=O)Nc2sc3nccc4c3c2NC(=O)N4c2ccc(Oc3ccccc3)cc2C)C1 (stereo not shown) [Example 788, 1-Acryloyl-N-(5-(2-methyl-4-phenoxyphenyl)-4-oxo-4,5-dihydro-3H-1-thia-3,5,8-triazaacenaphthylen-2-yl)piperidine-3-carboxamide]
IC50 (read-out: BTK_I_binding pIC50 (converted)): 200 nM

C=CC(=O)N1CC[C@@H](NC(=O)c2sc3nccc4c3c2NC(=O)N4c2ccc(Oc3cccnn3)cc2C)C1 [Example 790, (R)—N-(1-Acryloylpyrrolidin-3-yl)-5-(2-methyl-4-(pyridazin-3-yloxy)phenyl)-4-oxo-4,5-dihydro-3H-1-thia-3,5,8-triazaacenaphthylene-2-carboxamide]
BTK_I_binding pIC50: 6.7

C=CC(=O)N1CCC[C@@H](NC(=O)c2sc3nccc4c3c2NC(=O)N4c2ccc(Oc3cccnn3)cc2)C1 [Example 791, (R)—N-(1-Acryloylpiperidin-3-yl)-4-oxo-5-(4-(pyridazin-3-yloxy)phenyl)-4,5-dihydro-3H-1-thia-3,5,8-triazaacenaphthylene-2-carboxamide]
BTK_I_binding pIC50: 6.6

C=CC(=O)N1CCC[C@H](NC(=O)c2sc3nccc4c3c2NC(=O)N4c2ccc(Oc3ccccc3)cn2)C1 [Example 795, (S)—N-(1-Acryloylpiperidin-3-yl)-4-oxo-5-(5-phenoxypyridin-2-yl)-4,5-dihydro-3H-1-thia-3,5,8-triazaacenaphthylene-2-carboxamide]
BTK_I_binding pIC50: 6.4

C=CC(=O)N1CCN(c2sc3nccc4c3c2NC(=O)N4c2ccc(Oc3ccccc3)cc2C)CC1 [Example 796, 2-(4-Acryloylpiperazin-1-yl)-5-(2-methyl-4-phenoxyphenyl)-3H-1-thia-3,5,8-triazaacenaphthylen-4(5H)-one]
BTK_I_binding pIC50: 6.3

CCC(=O)N1CCC[C@@H](NC(=O)c2sc3nccc4c3c2NC(=O)N4c2ccc(Oc3ccccn3)cc2C)C1 [Example 799, (R)-5-(2-Methyl-4-(pyridin-2-yloxy)phenyl)-4-oxo-N-(1-propionylpiperidin-3-yl)-4,5-dihydro-3H-1-thia-3,5,8-triazaacenaphthylene-2-carboxamide]
BTK_I_binding pIC50: 6.2

CC(=O)N1CCC[C@@H](NC(=O)c2sc3nccc4c3c2NC(=O)N4c2ccc(Oc3ccccn3)cc2C)C1 [Example 800, (R)—N-(1-Acetylpiperidin-3-yl)-5-(2-methyl-4-(pyridin-2-yloxy)phenyl)-4-oxo-4,5-dihydro-3H-1-thia-3,5,8-triazaacenaphthylene-2-carboxamide]
BTK_I_binding pIC50: 6.2

Cc1cc(Oc2ccccc2)ccc1N1C(=O)Nc2c(NC(=O)C3CCCN(C(=O)/C(C#N)=C/C4CC4)C3)sc3nccc1c23 (stereo not shown) [Example 801, (E)-1-(2-Cyano-3-cyclopropylacryloyl)-N-(5-(2-methyl-4-phenoxyphenyl)-4-oxo-4,5-dihydro-3H-1-thia-3,5,8-triazaacenaphthylen-2-yl)piperidine-3-carboxamide]
BTK_I_binding pIC50: 6.2

Cc1cc(Oc2ccccc2)ccc1N1C(=O)Nc2c(NC(=O)C3CCCN(C#N)C3)sc3nccc1c23 (stereo not shown) [Example 802, 1-Cyano-N-(5-(2-methyl-4-phenoxyphenyl)-4-oxo-4,5-dihydro-3H-1-thia-3,5,8-triazaacenaphthylen-2-yl)piperidine-3-carboxamide]
BTK_I_binding pIC50: 6.1

C=CC(=O)N1CC[C@@H](NC(=O)c2sc3nccc4c3c2NC(=O)N4c2ccc(Oc3cccnn3)cc2)C1 [Example 803, (R)—N-(1-Acryloylpyrrolidin-3-yl)-4-oxo-5-(4-(pyridazin-3-yloxy)phenyl)-4,5-dihydro-3H-1-thia-3,5,8-triazaacenaphthylene-2-carboxamide]
BTK_I_binding pIC50: 6.1

CCC(=O)N1CCC(C(=O)Nc2sc3nccc4c3c2NC(=O)N4c2ccc(Oc3ccccc3)cc2C)CC1 [Example 805, N-(5-(2-Methyl-4-phenoxyphenyl)-4-oxo-4,5-dihydro-3H-1-thia-3,5,8-triazaacenaphthylen-2-yl)-1-propionylpiperidine-4-carboxamide]
BTK_I_binding pIC50: 6.0

CCC(=O)N1CCC[C@@H](NC(=O)c2sc3nccc4c3c2NC(=O)N4c2ccc(Oc3ccccn3)cc2)C1 [Example 807, (R)-4-Oxo-N-(1-propionylpiperidin-3-yl)-5-(4-(pyridin-2-yloxy)phenyl)-4,5-dihydro-3H-1-thia-3,5,8-triazaacenaphthylene-2-carboxamide]
BTK_I_binding pIC50: <6
